Data on two compounds can be found in article PMC9820345, “Metal Complexes of a 5-Nitro-8-Hydroxyquinoline-Proline Hybrid with Enhanced Water Solubility Targeting Multidrug Resistant Cancer Cells” (International Journal of Molecular Sciences, 2022).

A short description of data set [1]: Stability of the isolated complexes in aqueous solution at pH 7.4 (UV-vis over 72 h). The format is physicochemical. As for the experimental part:
The stability of the isolated RhCp* and RuCym complexes in aqueous solution at pH 7.4 was assayed via recording the UV-vis spectra over 72 h (Figure S18). […] Then, the behaviour of the complexes was monitored between pH 2 and 12 by ^1H NMR spectroscopy (see representative spectra of the RuCym complex in Figure 8) in chloride-free medium, as this halide ion can act as a competitor ligand. There was no indication for the dissociation of the complexes (i.e., liberation of unbound ligand or metal precursor) in the studied pH range or even at pH 1 (Figure S19), showing their fairly high stability in solution.
An Agilent Cary 8454 diode array spectrophotometer (Santa Clara, CA, USA) was used to obtain UV-vis spectra in the wavelength range 200–1000 nm, while spectra were recorded for the Fe(II)-containing samples using an Avantes (Avantes B.V., Apeldoorn, The Nederlands) AvaSpec-ULS2048CL-EVO spectrometer with an AvaLight-DHc light source and FDP-7UVIR200-2-VAR transmission dip probe. The titrations for the Fe(II)-containing samples were performed in a laboratory glove box (GP(Campus), Jacomex) (O2 content ≤ 1 ppm). The path length (ℓ) was 1 cm in most cases (the actual ℓ is always indicated in the legends of the figures). The concentrations of the ligands and complexes were between 40 and 200 µM, and 0.2 M KNO3 for the organometallic complexes or 0.1 M KCl for the Fe(II/III), Cu(II), and Zn(II) complexes were used to adjust the constant ionic strength. For HSA containing samples, complex concentrations were 50 µM, and 0.5, and 2 equiv. biomolecules were added for kinetic studies, respectively. For HSA model containing samples, complex concentrations were 50 µM, and the model concentrations were 0–150 µM and 0–500 µM, respectively, and the pH was 7.4 (PBS’). Spectra were always background and baseline corrected. The computer program HypSpec was used to obtain stability constants. Hydrolysis constants of the Fe(III), Fe(II), RuCym, and RhCp* species were included in the speciation models (see Table S4 with the data taken from References).

The format of data set [2] is physicochemical. The following applies: for logK' (H2O/Cl−): I = 0.2 M KNO3, 25.0 °C. How it is done:
Spectral changes in the UV-vis spectra (Figure 8c) reveal two transformation processes. […] As chloride ions can efficiently coordinate to these types of half-sandwich organometallic complexes, the water/chloride co-ligand exchange process was also studied by UV-vis spectrophotometry (at pH 7.4 or 6.0), and logK' (H2O/Cl^-) exchange constants were determined (Table 3) based on the spectral changes upon increasing the chloride concentration in the solution. For the RhCp* complex, a higher constant, namely stronger chloride ion affinity, was obtained. […] An Agilent Cary 8454 diode array spectrophotometer (Santa Clara, CA, USA) was used to obtain UV-vis spectra in the wavelength range 200-1000 nm, while spectra were recorded for the Fe(II)-containing samples using an Avantes (Avantes B.V., Apeldoorn, The Nederlands) AvaSpec-ULS2048CL-EVO spectrometer with an AvaLight-DHc light source and […] transmission dip probe. The titrations for the Fe(II)-containing samples were performed in a laboratory glove box (GP(Campus), Jacomex) (O2 content ≤ 1 ppm). The path length (l) was 1 cm in most cases (the actual l is always indicated in the legends of the figures). […] Spectra were always background and baseline corrected. The computer program HypSpec was used to obtain stability constants. Hydrolysis constants of the Fe(III), Fe(II), RuCym, and RhCp* species were included in the speciation models (see Table S4 with the data taken from References).

Data set [3] in a line: Mixed-ligand adduct formation with N-methylimidazole. The format is binding. To be noted: mim, pH 7.4. How it is done:
According to numerous papers on the binding of half-sandwich organometallic complexes to HSA [35, 36], surface exposed histidine (His) side chains are the most feasible coordinating moieties. […] The equilibrium could be reached within 3–10 min in the case of the RhCp* complex on the basis of the UV-vis spectral changes (Figure S28), and similar conditional constants (logK’) were computed with these model compounds for the formation of mixed-ligand RhCp* complexes; namely logK’ 5.00 ± 0.1, 4.4 ± 0.1, 5.1 ± 0.1 were obtained in the case of FHA, AHA, and mim, respectively. […] In the case of the oligopeptides, formation of isomers was detected which might be explained by the existence of two chiral centers, namely the metal ion and His-CHα. The adduct formation of the RuCym complex with mim was quantitative, hindering the determination of the logK’ value (meaning logK’ > 5.5). […]
An Agilent Cary 8454 diode array spectrophotometer (Santa Clara, CA, USA) was used to obtain UV-vis spectra in the wavelength range 200–1000 nm, while spectra were recorded for the Fe(II)-containing samples using an Avantes (Avantes B.V., Apeldoorn, The Nederlands) AvaSpec-ULS2048CL-EVO spectrometer with an AvaLight-DHc light source and FDP-7UVIR200-2-VAR transmission dip probe. […]

Like-named read-outs stand apart in the source and are kept apart here.

With `CC1=C(C)[C](C)([Rh]([Cl])[O]c2c(C[NH+]3CCC[C@H]3C(=O)O)cc([N+](=O)[O-])c3cccnc23)C(C)=C1C.[Cl-]` [RhCp*-HQNO2-L-Pro, [RhCp*(HQNO2-L-Pro)Cl]Cl], the “UV-vis spectral changes in aqueous solution” value in data set [1] (after 48 h) is recorded as “minor spectral change”; in data set [1] (first 24 h), “no measurable changes”. The “pKa (1)” value in data set [2] was 9.33 ± 0.03. The “pKa (2)” value in data set [2] amounted to 10.34 ± 0.03. For the same compound, the “logK' (H2O/Cl−)” value in data set [2] (pH 7.4) turned out to be 2.07 ± 0.03. Also, the “conditional constant logK' of mixed-ligand complex” value in data set [3] (UV-vis) is given as 5.1 ± 0.1.

As to `Cc1ccc(C(C)C)cc1.O=C(O)[C@@H]1CCC[NH+]1Cc1cc([N+](=O)[O-])c2ccc[n+]3c2c1[O][Ru-]3[Cl].[Cl-]` [RuCym-HQNO2-L-Pro, [RuCym(HQNO2-L-Pro)Cl]Cl], the “UV-vis spectral changes in aqueous solution” value in data set [1] (first 24 h) is reported as “no measurable changes”. Besides, in data set [2], the “pKa (1)” value stood at 8.55 ± 0.03 and the “pKa (2)” value stood at 10.21 ± 0.03. The “logK' (H2O/Cl−)” value in data set [2] (pH 6.0) is reported as 1.47 ± 0.01. Moreover, the “conditional constant logK' of adduct” value in data set [3] (1H NMR, 24 h incubation, adduct formation quantitative) is recorded as more than 5.5.
